Measured values from US5618812A, “Benzodiazepine derivatives” (Merck Sharp & Dohme, Ltd., priority 1992, dated 1997).
pIC50: −log10 of the molar value. Counter-ions that a name gives are not always drawn. Like-named read-outs stand apart in the source and are kept apart here.

Experiments:
[1] = target: T1, CCK-A (Rattus norvegicus, UniProt P30551); assay: biochemical; format: binding; settings: rat pancreas (CCK-A), 125I-CCK
T1 sequence (P30551 1-444): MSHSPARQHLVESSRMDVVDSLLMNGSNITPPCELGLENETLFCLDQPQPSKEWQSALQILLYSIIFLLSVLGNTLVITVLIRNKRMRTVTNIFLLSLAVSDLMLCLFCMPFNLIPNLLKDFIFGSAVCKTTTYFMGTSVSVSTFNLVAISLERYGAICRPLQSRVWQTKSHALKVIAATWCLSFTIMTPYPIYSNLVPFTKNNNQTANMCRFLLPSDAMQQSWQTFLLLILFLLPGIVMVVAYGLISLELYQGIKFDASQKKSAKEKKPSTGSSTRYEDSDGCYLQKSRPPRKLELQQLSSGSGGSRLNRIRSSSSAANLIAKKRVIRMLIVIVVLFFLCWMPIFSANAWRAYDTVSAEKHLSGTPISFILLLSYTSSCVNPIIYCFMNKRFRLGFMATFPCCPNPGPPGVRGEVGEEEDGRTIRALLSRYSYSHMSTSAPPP
Procedure: (§1) The CCK-A and CCK-B antagonising activity of the compounds described herein was evaluated using the assays described in published European patent application no. 0514133. The method essentially involves determining the concentration of the test compound required to displace 50% of the specific ^125 I-CCK from rat pancreas (CCK-A) or guinea pig brain (CCK-B).

[2] = target: T2, CCK-B (Cavia porcellus, UniProt H0VZC5); assay: displacement of specific 125I-CCK from guinea pig brain (CCK-B receptor binding)
T2 construct: guinea pig brain (CCK-B); from tissue; host or cells: guinea pig brain
T2 sequence (H0VZC5 1-426): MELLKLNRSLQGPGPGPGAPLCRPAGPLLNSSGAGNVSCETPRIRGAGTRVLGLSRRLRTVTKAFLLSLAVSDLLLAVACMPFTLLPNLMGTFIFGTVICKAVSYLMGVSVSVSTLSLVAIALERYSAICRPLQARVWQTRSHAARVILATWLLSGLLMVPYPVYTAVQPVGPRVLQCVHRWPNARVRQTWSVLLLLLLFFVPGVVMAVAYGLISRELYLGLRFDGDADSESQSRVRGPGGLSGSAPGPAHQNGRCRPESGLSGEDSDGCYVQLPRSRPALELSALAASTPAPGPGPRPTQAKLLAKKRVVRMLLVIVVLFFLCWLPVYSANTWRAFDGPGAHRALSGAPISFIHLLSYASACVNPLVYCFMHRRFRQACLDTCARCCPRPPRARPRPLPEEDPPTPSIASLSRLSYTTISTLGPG
Procedure: as §1, with “(CCK-B). The data in Table 1 were obtained for compounds of the Examples.” for “(CCK-B).”

[3] = read-out: CCK RECEPTOR BINDING RESULTS IC50 125I-CCK Pancreas
[4] = read-out: CCK RECEPTOR BINDING RESULTS IC50 125I-CCK Brain

Row | Molecule | pIC50 [1, 3] | pIC50 [2, 4] | pIC50 ([1]; CCK RECEPTOR BINDING RESULTS IC50 125I-CCK Pancreas) | pIC50 ([2]; CCK RECEPTOR BINDING RESULTS IC50 125I-CCK Brain)
1 | CN1C(=O)C(NC(=O)Nc2ccc3c(c2)CCC3)N=C(N(C)C2CCCCCC2)c2ccccc21 (single isomer, unassigned; (-)) [Example 70, (-)-5-(N-Cycloheptyl-N-methylamino)-2,3-dihydro-1-methyl-2-oxo-1H-1,4-benzodiazepin-3-yl-N'-[5-indanyl]urea. Hydrochloride] | < 5.52 | 9.21 |  | 
2 | CN1C(=O)C(NC(=O)c2cc3ccccc3[nH]2)N=C(N2CC3CCC(CC3)C2)c2ccccc21 (single isomer, unassigned; (-)) [Example 88, (-)-N-(5-(3-Azabicyclo[3,2,2]nonan-3-yl)-2,3-dihydro-1-methyl-2-oxo-1H-1,4-benzodiazepin-3-yl)-1H-indole-2-carboxamide hydrochloride] |  |  | 6.41 | 7.18
3 | Cc1cccc(NC(=O)NC2N=C(N3[C@H](C)CCC[C@@H]3C)c3ccccc3N(C)C2=O)c1 (stereo partly drawn) [Example 6, N-[3(R,S)-2,3-Dihydro-5-(cis-2,6-dimethylpiperidin-1-yl)-1-methyl-2-oxo-1H-1,4-benzodiazepin-3-yl]N'-[3-methylphenyl]urea] | 6.63 | 7.96 |  | 
4 | C[C@@H]1CCC[C@H](C)N1C1=NC(NC(=O)Nc2ccc3c(c2)CCC3)C(=O)N(C)c2ccccc21 (stereo partly drawn) [Example 13, N-[3(R,S)-2,3-Dihydro-5-(cis-2.6-dimethylpiperidin-1-yl)-1-methyl-2-oxo-1H-1,4-benzodiazepin-3-yl]N'-[indan-5-yl]urea] | 6.30 | 8.82 |  | 
5 | Cc1cccc(NC(=O)NC2N=C(N3C[C@@H](C)O[C@@H](C)C3)c3ccccc3N(C)C2=O)c1 (stereo partly drawn) [Example 16, N-[3(R,S)-2,3-Dihydro-5-(cis-2,6-dimethylmorpholin-4-yl)-1-methyl-2-oxo-1H-1,4-benzodiazepin-3-yl]N'-[3-methylphenyl]urea] | 5.58 | 7.72 |  | 
6 | CCCN1C(=O)C(NC(=O)Nc2cccc(C)c2)N=C(N2C[C@@H]3C[C@H]2CN3C)c2ccccc21 (stereo partly drawn) [Example 32, N-[3(R,S)-2,3-Dihydro-5-((1S,4S)-5-methyl-2,5-diazabicyclo-[2,2,1]heptan-2-yl)-2-oxo-1-propyl-1H-1,4-benzodiazepin-3-yl]-N'-[3-methylphenyl]urea] | < 5.52 | 7.66 |  | 
7 | CC(C)CN1C(=O)C(NC(=O)[C@@H]2Cc3ccccc3N2)N=C(N2CCCCCC2)c2ccccc21 (stereo partly drawn) [Example 93, 3(R,S)-N-(2,3-Dihydro-5-(homopiperidin-1-yl)-1-(2-methylpropyl)-2-oxo-1H-1,4-benzodiazepin-3-yl)-(2S)-indoline-2-carboxamide] | 7.00 | 6.46 |  | 
8 | (+)-[5-(N-Cycloheptyl-N-methylamino)-2,3-dihydro-1ethyl-2-oxo-1H-1,4-benzodiazepin-3-yl ]-N'-[5-indanyl ]urea Hydrochloride [Example 71] | 6.84 | 7.07 |  | 
